# ChEMBL document CHEMBL5465560, “Selectivity Literature for EUbOPEN Chemogenomic Library” (2024)
# Assays:
# [1] = target: T1, Activin receptor type-1B (Homo sapiens) (UniProt P36896); experiment: Selectivity interaction (KinomeScan (DiscoverX)) EUB0000655a ACVR1B; settings: at 10 µM
# T1 sequence (whole entry): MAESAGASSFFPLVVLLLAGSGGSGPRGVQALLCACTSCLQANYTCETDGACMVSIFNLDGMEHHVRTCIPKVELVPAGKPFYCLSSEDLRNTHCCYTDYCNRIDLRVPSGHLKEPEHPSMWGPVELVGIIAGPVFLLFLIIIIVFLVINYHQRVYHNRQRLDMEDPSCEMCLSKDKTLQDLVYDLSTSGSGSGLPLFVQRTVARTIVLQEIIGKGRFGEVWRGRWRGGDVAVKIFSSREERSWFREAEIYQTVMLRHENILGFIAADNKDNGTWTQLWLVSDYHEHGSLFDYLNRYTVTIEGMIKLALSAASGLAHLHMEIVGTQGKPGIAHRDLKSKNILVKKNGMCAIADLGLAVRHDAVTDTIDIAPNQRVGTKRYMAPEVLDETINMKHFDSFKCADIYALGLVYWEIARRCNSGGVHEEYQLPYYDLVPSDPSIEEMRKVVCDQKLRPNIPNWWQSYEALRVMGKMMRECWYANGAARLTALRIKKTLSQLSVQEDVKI
# [2] = target: Serine/threonine-protein kinase PAK 4 (Homo sapiens, UniProt O96013)
# Chain of Serine/threonine-protein kinase PAK 4 (O96013 whole entry): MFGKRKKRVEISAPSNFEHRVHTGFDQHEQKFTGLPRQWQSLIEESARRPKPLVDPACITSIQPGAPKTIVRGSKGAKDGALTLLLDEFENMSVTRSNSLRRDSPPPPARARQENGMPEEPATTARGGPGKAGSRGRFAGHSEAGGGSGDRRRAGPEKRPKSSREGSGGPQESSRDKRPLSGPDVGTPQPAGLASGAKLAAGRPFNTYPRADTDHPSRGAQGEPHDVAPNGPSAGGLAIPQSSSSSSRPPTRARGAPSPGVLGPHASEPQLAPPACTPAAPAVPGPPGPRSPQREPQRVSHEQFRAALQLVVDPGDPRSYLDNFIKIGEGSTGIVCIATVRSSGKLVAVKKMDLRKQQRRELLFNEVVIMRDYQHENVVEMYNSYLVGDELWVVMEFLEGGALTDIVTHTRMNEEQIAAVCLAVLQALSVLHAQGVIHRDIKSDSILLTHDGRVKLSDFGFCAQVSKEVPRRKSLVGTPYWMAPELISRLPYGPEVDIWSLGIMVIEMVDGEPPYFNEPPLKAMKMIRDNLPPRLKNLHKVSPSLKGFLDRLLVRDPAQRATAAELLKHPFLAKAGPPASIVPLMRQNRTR
# [3] = target: Tyrosine-protein kinase ABL2 (Homo sapiens, UniProt P42684); experiment: Selectivity interaction (ActivX KiNativ screen (kinase selectivity in THP-1 cell lysates)) EUB0000639a ABL2; format: subcellular; settings: lysate, at 0.2 µM
# Chain of Tyrosine-protein kinase ABL2 (P42684 whole entry): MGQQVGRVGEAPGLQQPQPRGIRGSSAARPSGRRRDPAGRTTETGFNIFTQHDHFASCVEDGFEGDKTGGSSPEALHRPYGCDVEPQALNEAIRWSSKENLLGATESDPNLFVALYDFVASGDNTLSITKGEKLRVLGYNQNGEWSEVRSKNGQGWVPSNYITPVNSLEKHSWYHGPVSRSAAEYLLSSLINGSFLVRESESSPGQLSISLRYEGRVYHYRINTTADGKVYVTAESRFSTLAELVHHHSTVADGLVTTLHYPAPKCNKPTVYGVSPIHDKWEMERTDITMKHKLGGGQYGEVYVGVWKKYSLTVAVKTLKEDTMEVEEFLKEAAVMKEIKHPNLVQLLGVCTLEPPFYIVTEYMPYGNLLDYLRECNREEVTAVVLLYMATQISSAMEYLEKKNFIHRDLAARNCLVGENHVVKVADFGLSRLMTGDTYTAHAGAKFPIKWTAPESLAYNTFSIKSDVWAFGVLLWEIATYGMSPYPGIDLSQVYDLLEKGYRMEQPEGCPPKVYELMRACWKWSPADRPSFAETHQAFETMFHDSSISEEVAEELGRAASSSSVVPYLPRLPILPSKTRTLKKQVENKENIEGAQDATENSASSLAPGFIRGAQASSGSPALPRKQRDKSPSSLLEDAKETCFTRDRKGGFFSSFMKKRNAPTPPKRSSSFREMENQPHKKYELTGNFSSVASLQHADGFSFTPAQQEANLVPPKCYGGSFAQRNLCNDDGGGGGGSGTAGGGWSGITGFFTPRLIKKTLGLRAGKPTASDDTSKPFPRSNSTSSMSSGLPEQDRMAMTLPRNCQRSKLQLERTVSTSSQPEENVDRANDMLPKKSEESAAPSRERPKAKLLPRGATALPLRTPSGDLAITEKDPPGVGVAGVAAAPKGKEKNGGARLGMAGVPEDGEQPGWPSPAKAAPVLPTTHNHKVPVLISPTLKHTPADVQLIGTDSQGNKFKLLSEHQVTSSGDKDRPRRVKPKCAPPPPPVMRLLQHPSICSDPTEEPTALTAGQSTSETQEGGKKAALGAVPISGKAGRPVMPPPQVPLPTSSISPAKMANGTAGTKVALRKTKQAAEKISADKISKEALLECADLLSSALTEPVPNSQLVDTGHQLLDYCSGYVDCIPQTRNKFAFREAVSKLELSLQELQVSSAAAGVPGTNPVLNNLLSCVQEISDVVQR
# [4] = target: Receptor-type tyrosine-protein kinase FLT3 (Homo sapiens) (UniProt P36888); experiment: (§1) Selectivity interaction (SelectScreen profiling (Invitrogen)) EUB0000607a FLT3; settings: at 2 µM
# [5] = system: T2, Receptor-type tyrosine-protein kinase FLT3 (Homo sapiens), P36888 [D835Y]; experiment: as §1; settings: at 2 µM
# T2 sequence (whole entry): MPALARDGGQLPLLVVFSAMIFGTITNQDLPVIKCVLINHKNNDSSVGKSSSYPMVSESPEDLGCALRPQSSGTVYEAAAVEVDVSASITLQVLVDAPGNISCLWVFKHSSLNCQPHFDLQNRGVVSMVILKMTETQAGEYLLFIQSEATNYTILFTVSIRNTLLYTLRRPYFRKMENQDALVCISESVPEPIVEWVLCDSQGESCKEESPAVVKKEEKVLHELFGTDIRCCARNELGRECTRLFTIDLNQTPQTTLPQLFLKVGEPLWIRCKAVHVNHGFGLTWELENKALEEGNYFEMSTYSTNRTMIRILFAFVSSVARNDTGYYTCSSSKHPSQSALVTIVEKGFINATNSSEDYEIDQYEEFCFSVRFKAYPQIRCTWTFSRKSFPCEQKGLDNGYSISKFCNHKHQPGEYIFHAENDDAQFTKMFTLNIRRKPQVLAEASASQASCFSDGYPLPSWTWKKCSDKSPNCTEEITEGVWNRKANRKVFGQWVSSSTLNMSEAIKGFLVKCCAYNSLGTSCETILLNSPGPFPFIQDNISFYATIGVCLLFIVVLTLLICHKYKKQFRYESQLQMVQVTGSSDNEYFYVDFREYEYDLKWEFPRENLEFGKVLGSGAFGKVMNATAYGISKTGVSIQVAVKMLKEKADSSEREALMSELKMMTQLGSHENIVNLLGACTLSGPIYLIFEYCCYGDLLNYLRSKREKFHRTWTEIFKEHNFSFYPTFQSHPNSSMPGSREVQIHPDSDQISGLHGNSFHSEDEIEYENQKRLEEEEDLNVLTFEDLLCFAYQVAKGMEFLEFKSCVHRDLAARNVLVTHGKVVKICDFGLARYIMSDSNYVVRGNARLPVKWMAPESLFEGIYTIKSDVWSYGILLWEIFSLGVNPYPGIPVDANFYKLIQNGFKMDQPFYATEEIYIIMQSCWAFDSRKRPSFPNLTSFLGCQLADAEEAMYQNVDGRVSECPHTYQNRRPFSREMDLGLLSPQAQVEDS
# [6] = target: T3, Serine/threonine-protein kinase RIO1 (Homo sapiens) (UniProt Q9BRS2); experiment: Selectivity interaction (KinomeScan (DiscoverX)) EUB0000618a RIOK1; settings: at 10 µM
# T3 sequence (whole entry): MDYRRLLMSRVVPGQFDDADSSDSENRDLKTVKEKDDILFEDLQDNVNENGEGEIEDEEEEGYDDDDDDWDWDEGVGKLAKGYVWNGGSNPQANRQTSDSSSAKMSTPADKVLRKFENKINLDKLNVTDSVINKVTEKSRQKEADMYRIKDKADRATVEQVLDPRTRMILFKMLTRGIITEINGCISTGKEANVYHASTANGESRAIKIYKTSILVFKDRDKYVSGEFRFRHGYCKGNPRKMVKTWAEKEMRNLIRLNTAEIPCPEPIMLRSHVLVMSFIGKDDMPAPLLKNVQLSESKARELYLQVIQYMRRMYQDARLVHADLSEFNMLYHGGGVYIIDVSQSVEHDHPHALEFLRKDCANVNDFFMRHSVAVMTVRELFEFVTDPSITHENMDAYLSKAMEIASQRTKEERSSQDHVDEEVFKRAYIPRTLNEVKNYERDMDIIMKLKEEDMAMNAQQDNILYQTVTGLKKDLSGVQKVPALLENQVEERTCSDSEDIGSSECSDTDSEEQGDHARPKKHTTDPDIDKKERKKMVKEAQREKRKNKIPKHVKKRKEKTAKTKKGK
# [7] = target: Fibroblast growth factor receptor 4 (Homo sapiens, UniProt P22455); experiment: Selectivity interaction (Kinase screening (Nanosyn)) EUB0000604a FGFR4
# Chain of Fibroblast growth factor receptor 4 (P22455 22-802 limits assumed): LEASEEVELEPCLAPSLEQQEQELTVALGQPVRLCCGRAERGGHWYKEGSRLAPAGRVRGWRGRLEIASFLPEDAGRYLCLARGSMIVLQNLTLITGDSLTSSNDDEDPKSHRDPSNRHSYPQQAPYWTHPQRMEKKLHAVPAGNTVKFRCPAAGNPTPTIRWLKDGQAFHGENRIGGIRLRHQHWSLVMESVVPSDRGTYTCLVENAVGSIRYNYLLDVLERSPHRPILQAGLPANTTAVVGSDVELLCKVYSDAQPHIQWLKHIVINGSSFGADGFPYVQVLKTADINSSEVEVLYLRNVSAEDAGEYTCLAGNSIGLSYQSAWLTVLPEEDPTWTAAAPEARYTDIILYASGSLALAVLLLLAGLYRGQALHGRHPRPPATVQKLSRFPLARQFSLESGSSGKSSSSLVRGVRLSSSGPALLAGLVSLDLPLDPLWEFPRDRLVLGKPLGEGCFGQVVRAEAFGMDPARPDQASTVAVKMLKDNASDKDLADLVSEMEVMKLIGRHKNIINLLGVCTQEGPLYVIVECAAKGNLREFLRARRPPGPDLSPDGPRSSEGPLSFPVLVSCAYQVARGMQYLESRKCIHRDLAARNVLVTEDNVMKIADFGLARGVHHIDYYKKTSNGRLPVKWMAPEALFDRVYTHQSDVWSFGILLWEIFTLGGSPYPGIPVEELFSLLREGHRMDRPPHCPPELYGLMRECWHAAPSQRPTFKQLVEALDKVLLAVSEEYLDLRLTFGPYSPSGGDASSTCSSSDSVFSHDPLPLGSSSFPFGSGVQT
# [8] = target: Eukaryotic translation initiation factor 2-alpha kinase 1 (Homo sapiens) (UniProt Q9BQI3); experiment: Selectivity interaction (KinomeScan (DiscoverX)) EUB0001619a EIF2AK1; settings: at 1 µM
# Chain of Eukaryotic translation initiation factor 2-alpha kinase 1 (Homo sapiens) (Q9BQI3 whole entry): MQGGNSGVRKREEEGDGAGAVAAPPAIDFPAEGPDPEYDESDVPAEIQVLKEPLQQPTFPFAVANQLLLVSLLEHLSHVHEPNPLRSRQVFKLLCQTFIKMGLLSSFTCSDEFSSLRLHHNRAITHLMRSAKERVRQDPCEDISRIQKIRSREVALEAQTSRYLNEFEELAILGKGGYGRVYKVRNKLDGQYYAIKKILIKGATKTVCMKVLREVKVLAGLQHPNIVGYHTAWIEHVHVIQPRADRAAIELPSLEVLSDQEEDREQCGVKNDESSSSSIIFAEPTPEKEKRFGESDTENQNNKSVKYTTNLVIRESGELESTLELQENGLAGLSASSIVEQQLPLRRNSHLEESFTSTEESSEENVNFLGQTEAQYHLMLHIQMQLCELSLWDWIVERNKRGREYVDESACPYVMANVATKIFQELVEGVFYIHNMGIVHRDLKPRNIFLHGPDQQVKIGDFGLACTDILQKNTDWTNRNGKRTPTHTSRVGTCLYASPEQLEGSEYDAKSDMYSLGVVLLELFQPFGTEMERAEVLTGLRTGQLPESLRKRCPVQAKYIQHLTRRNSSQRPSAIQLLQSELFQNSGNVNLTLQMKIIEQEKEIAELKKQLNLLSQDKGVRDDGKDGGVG
# [9] = target: T4, Serine/threonine-protein kinase 3 (Homo sapiens) (UniProt Q13188); experiment: Selectivity interaction (ActivX KiNativ screen (ex vivo kinase selectivity in human PBMCs)) EUB0001619a STK3; format: cell-based; settings: PBMC, at 1 µM
# T4 sequence (whole entry): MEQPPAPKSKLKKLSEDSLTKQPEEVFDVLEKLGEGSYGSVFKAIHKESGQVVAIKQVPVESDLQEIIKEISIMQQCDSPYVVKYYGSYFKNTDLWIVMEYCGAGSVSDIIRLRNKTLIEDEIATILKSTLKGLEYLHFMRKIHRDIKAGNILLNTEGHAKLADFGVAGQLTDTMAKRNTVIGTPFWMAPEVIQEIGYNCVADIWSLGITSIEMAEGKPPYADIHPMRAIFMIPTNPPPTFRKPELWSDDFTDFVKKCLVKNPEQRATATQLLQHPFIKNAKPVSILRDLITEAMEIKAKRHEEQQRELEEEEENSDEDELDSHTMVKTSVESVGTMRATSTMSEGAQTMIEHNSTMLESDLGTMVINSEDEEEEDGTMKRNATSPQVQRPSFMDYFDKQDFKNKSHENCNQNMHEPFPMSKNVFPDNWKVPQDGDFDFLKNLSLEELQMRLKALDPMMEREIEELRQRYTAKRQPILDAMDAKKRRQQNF
smiles,measurement,setting,value
CN(C)CCOc1ccc(-c2nc(-c3ccncc3)c(-c3ccc4c(c3)CC/C4=N\O)[nH]2)cc1,% of control,[1],40%
CCc1cccc(CC)c1NC(=O)c1nn(C)c2c1CCc1cnc(Nc3ccc(C(=O)NC4CCN(C)CC4)cc3OC(F)(F)F)nc1-2,IC50,[2],> 10 µM
CC[C@@H]1[C@H](F)C(=O)N[C@@H]1COc1nccc2cc(C(N)=O)c(OC)cc12 [ZIMLOVISERTIB],% of inhibition,[3],-42.6%
CNC(=O)Nc1ccc(-c2nc(N3CC4CCC(C3)O4)c3cnn(C4CCC5(CC4)OCCO5)c3n2)cc1,% of inhibition,[4],17%
same,% of inhibition,[5],7%
O[C@H]1CC[C@H](Nc2ncc3nc(Nc4c(F)cc(F)cc4F)n([C@H]4CCOC4)c3n2)CC1,% of control,[6],100%
Cc1cnc(Nc2ccc(F)cc2Cl)nc1-c1c[nH]c(C(=O)N[C@H](CO)c2cccc(Cl)c2)c1,% of inhibition,[7],0.3%
N#Cc1cccc(-c2c[nH]c3ncnc(N4CCOCC4)c23)c1,% of control,[8],100%
same,% of inhibition,[9],71%
